Here are results for one molecule from publication PMC9885526 (ACS Central Science, 2023).

The structures appear in SMILES notation.

For this assay, the system named is SARS-CoV-2 (Omicron variant). In words: microbe, parasite or virus in culture. The class given is cell-based. To be noted: Severe acute respiratory syndrome coronavirus 2, Caco-2.

Regarding `CC(C)(C)[C@H](NC(=O)C(F)(F)F)C(=O)N1C[C@H]2[C@@H]([C@H]1C(=O)N[C@H](C#N)C[C@@H]1CCNC1=O)C2(C)C` [PF-07321332, Nirmatrelvir], the EC50 was 0.033 µM.

A word on the EC50: it is the midpoint of the concentration-response curve. Low readings indicate a more potent agent, high ones a less potent agent.
